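Method: 48-hour compound exposure of cells in 96-well plates, five concentrations, linear interpolation of endpoints. Here, GI50 denotes the concentration required for 50% inhibition of growth.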 The source made the active and inactive calls. Cut-off read from the data, not from the text of the source: active = GI50 up to about 1.1 µM and inactive = higher.
Experiments:
Assay in all cases: inhibition of tumour cell growth, NCI panel, 48 h
M19-MEL = system: M19-MEL
HOP-18 = system: HOP-18
LXFL 529 = system: LXFL 529
KM-20L2 = system: KM-20L2
DLD-1 = system: DLD-1
RXF 631 = system: RXF 631
DMS-273 = system: DMS-273
XF498 = system: XF498
T47D = system: T47D

Measured: GI50

NS(=O)(=O)c1ccc(NC(=O)C2C(=O)C(=O)N(c3ccc(S(N)(=O)=O)cc3)C2=O)cc1 (stereo unspecified)
inactive: M19-MEL > 100 µM | HOP-18 > 100 µM | LXFL 529 > 100 µM | KM-20L2 > 100 µM | DLD-1 > 100 µM | RXF 631 > 100 µM | DMS-273 > 100 µM

CCCCCCCCOCC(O)COC(=O)CCCCCCC (stereo unspecified)
inactive: M19-MEL 70.8 µM | HOP-18 > 100 µM | LXFL 529 > 100 µM | KM-20L2 > 100 µM | DLD-1 > 100 µM | RXF 631 > 100 µM | DMS-273 44.6 µM

CCOC(=O)[N-]c1ccc(S(=O)(=O)[O+](C)CCl)cc1.CCOC(=O)[N-]c1ccc(S(=O)(=O)[O+](C)CCl)cc1.NC(=O)N=O.NC(=O)OCCCl
inactive: M19-MEL > 100 µM | HOP-18 > 100 µM | LXFL 529 > 100 µM | KM-20L2 > 100 µM | XF498 > 100 µM | RXF 631 > 100 µM

O=c1c2cc([N+](=O)[O-])ccc2sc2ccsc12
inactive: M19-MEL > 100 µM | HOP-18 > 100 µM | LXFL 529 69.3 µM | KM-20L2 > 100 µM | DLD-1 > 100 µM | XF498 > 100 µM | RXF 631 > 100 µM

Nc1ncnc2c1ncn2C1C=C(CO)C(O)C1O (stereo unspecified)
inactive: M19-MEL 40.9 µM | HOP-18 24.3 µM | LXFL 529 16.7 µM | KM-20L2 14.7 µM | DLD-1 5.6 µM | XF498 37.2 µM | T47D 1.64 µM | RXF 631 12.6 µM | DMS-273 2.64 µM

From ChEMBL document CHEMBL1201862, “PubChem BioAssay data set” (2004)
